Values of other authors as cited in article PMC6680430, “Quantitative Prediction of Human Pharmacokinetics and Pharmacodynamics of CKD519, a Potent Inhibitor of Cholesteryl Ester Transfer Protein (CETP)” (Pharmaceutics, 2019).

Tested on: CETP
Conditions: cited from earlier work

COc1cc(F)c(C(C)C)cc1-c1ccc(C(F)(F)F)cc1CN1C(=O)O[C@H](c2cc(C(F)(F)F)cc(C(F)(F)F)c2)[C@@H]1C [anacetrapib]
peak effect, inhibition of CETP (exposure-response from literature): ~ 90%
IC50 (known in vivo value for the comparator, read-out: in vivo IC50 (plasma concentration for half of maximum CETP inhibition)): 22 nM
